Data taken from PubChem BioAssay (NCI).
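These data come from cells grown in 96-well plates and exposed to compound for 48 hours at five concentrations. At the TGI there is no net growth.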

Legend:
Test in all cases: growth of human tumour cells (NCI), 48 h
[1] = tested on: LXFL 529 NSCLC
[2] = tested on: COLO 205 colon
[3] = tested on: HCT-15 colon
[4] = tested on: NCI-H522 lung
[5] = tested on: HCC-2998 colon
[6] = tested on: HT29 colon
[7] = tested on: NCI-H23 lung
[8] = tested on: KM20L2 colon
[9] = tested on: 786-0 renal
[10] = tested on: OVCAR-3 ovarian
[11] = tested on: SK-MEL-5 melanoma
[12] = tested on: SNB-75 CNS
[13] = tested on: TK-10 renal
[14] = tested on: SNB-19 CNS
[15] = tested on: OVCAR-5 ovarian
[16] = tested on: U251 CNS
[17] = tested on: SF-268 CNS
[18] = tested on: NCI-H226 lung
[19] = tested on: DMS 114 small cell lung
[20] = tested on: OVCAR-8 ovarian
[21] = tested on: SK-MEL-28 melanoma
[22] = tested on: HCT-116 colon
[23] = tested on: HOP-92 NSCLC
[24] = tested on: A549 NSCLC
[25] = tested on: MOLT-4 leukemia
[26] = tested on: SF-539 CNS
[27] = tested on: DMS 273 small cell lung
[28] = tested on: EKVX NSCLC
[29] = tested on: RXF 393 renal
[30] = tested on: UO-31 renal
[31] = tested on: IGROV1 ovarian
[32] = tested on: RPMI-8226 leukemia
[33] = tested on: SK-OV-3 ovarian
[34] = tested on: SNB-78 CNS
[35] = tested on: SW-620 colon
[36] = tested on: OVCAR-4 ovarian
[37] = tested on: UACC-62 melanoma
[38] = tested on: M19-MEL melanoma
[39] = tested on: MALME-3M melanoma
[40] = tested on: SF-295 CNS
[41] = tested on: SK-MEL-2 melanoma
[42] = tested on: UACC-257 melanoma
[43] = tested on: KM12 colon
[44] = tested on: SN12C renal
[45] = tested on: K-562 leukemia
[46] = tested on: ACHN renal
[47] = tested on: M14 melanoma
[48] = tested on: HL-60(TB) leukemia
[49] = tested on: A498 renal
[50] = tested on: NCI-H460 lung
[51] = tested on: HOP-62 NSCLC
[52] = tested on: CCRF-CEM leukemia
[53] = tested on: DLD-1 colon
[54] = tested on: SR leukemia
[55] = tested on: CAKI-1 renal
[56] = tested on: LOX IMVI melanoma

For `CCOC(=O)c1cnc2oc(-c3ccc(OC)cc3)nn2c1=O`, the TGI [1] was over 100 µM, the TGI [2] was over 100 µM and the TGI [3] was over 100 µM. For the same compound, the TGI [4] was over 100 µM, the TGI [5] was over 100 µM and the TGI [6] was over 100 µM. For the same compound, the TGI [7] was over 100 µM, the TGI [8] was over 100 µM and the TGI [9] was over 100 µM. For the same compound, the TGI [10] was over 100 µM, the TGI [11] was over 100 µM and the TGI [12] was over 100 µM. The TGI [13] was over 100 µM, the TGI [14] was over 100 µM and the TGI [15] was over 100 µM. The TGI [16] was over 100 µM, the TGI [17] was over 100 µM and the TGI [18] was over 100 µM. For the same compound, the TGI [19] was over 100 µM, the TGI [20] was over 100 µM and the TGI [21] was over 100 µM. For the same compound, the TGI [22] was over 100 µM, the TGI [23] was over 100 µM and the TGI [24] was over 100 µM. For the same compound, the TGI [25] was over 100 µM, the TGI [26] was over 100 µM and the TGI [27] was over 100 µM. The TGI [28] was over 100 µM, the TGI [29] was over 100 µM and the TGI [30] was over 100 µM. It also gave a TGI [31] of over 100 µM, a TGI [32] of over 100 µM and a TGI [33] of over 100 µM. It also gave a TGI [34] of over 100 µM, a TGI [35] of over 100 µM and a TGI [36] of over 100 µM. The TGI [37] was over 100 µM, the TGI [38] was over 100 µM and the TGI [39] was over 100 µM. For the same compound, the TGI [40] was over 100 µM, the TGI [41] was over 100 µM and the TGI [42] was over 100 µM. The TGI [43] was over 100 µM, the TGI [44] was over 100 µM and the TGI [45] was over 100 µM.

`COc1nc(C(=O)O)c(Cl)c(OC)c1Cl` gave a TGI [2] of over 100 µM, a TGI [4] of over 100 µM and a TGI [5] of over 100 µM. It also gave a TGI [46] of over 100 µM, a TGI [6] of over 100 µM and a TGI [47] of over 100 µM. The TGI [7] was over 100 µM, the TGI [48] was over 100 µM and the TGI [8] was over 100 µM. The TGI [9] was over 100 µM, the TGI [10] was over 100 µM and the TGI [11] was over 100 µM. The TGI [13] was over 100 µM, the TGI [14] was over 100 µM and the TGI [15] was over 100 µM. It also gave a TGI [49] of over 100 µM, a TGI [17] of over 100 µM and a TGI [50] of over 100 µM. It also gave a TGI [19] of over 100 µM, a TGI [20] of over 100 µM and a TGI [21] of over 100 µM. For the same compound, the TGI [22] was over 100 µM, the TGI [23] was over 100 µM and the TGI [24] was over 100 µM. It also gave a TGI [25] of over 100 µM, a TGI [51] of over 100 µM and a TGI [26] of over 100 µM. The TGI [28] was over 100 µM, the TGI [29] was over 100 µM and the TGI [30] was over 100 µM. The TGI [31] was over 100 µM, the TGI [32] was over 100 µM and the TGI [33] was over 100 µM. The TGI [52] was over 100 µM, the TGI [35] was over 100 µM and the TGI [36] was over 100 µM. It also gave a TGI [53] of over 100 µM, a TGI [37] of over 100 µM and a TGI [38] of over 100 µM. It also gave a TGI [54] of over 100 µM, a TGI [39] of over 100 µM and a TGI [40] of over 100 µM. It also gave a TGI [41] of over 100 µM, a TGI [42] of over 100 µM and a TGI [43] of over 100 µM. For the same compound, the TGI [44] was over 100 µM and the TGI [55] was over 100 µM.

In the case of `CC1(C)CC2(S(=O)(=O)c3ccccc3)ON1CC2S(=O)(=O)c1ccccc1` (centres undefined), the TGI [1] is reported as over 100 µM, the TGI [2] is reported as over 100 µM and the TGI [3] is reported as over 100 µM. The TGI [4] was over 100 µM, the TGI [5] was over 100 µM and the TGI [46] was over 100 µM. The TGI [6] was over 100 µM, the TGI [47] was over 100 µM and the TGI [7] was over 100 µM. For the same compound, the TGI [48] was 78.5 µM, the TGI [8] was over 100 µM and the TGI [9] was over 100 µM. For the same compound, the TGI [10] was over 100 µM, the TGI [12] was over 100 µM and the TGI [13] was over 100 µM. It also gave a TGI [14] of over 100 µM, a TGI [15] of over 100 µM and a TGI [16] of over 100 µM. It also gave a TGI [17] of over 100 µM, a TGI [50] of over 100 µM and a TGI [56] of over 100 µM. For the same compound, the TGI [18] was over 100 µM, the TGI [19] was over 100 µM and the TGI [20] was over 100 µM. It also gave a TGI [21] of over 100 µM, a TGI [22] of over 100 µM and a TGI [24] of over 100 µM. The TGI [25] was over 100 µM, the TGI [51] was over 100 µM and the TGI [26] was over 100 µM. It also gave a TGI [27] of over 100 µM, a TGI [28] of over 100 µM and a TGI [29] of over 100 µM. The TGI [30] was over 100 µM, the TGI [31] was over 100 µM and the TGI [32] was over 100 µM. For the same compound, the TGI [33] was over 100 µM, the TGI [52] was 89.9 µM and the TGI [35] was over 100 µM. For the same compound, the TGI [36] was over 100 µM, the TGI [53] was over 100 µM and the TGI [37] was over 100 µM. For the same compound, the TGI [38] was over 100 µM, the TGI [54] was over 100 µM and the TGI [39] was over 100 µM. It also gave a TGI [40] of over 100 µM, a TGI [41] of over 100 µM and a TGI [42] of over 100 µM. It also gave a TGI [43] of over 100 µM, a TGI [44] of over 100 µM and a TGI [55] of over 100 µM. It also gave a TGI [45] of over 100 µM.
